This is an account of results in publication PMC5410595, “In Vitro and In Silico Antidiabetic and Antimicrobial Evaluation of Constituents from Kickxia ramosissima (Nanorrhinum ramosissimum)” (Frontiers in Pharmacology, 2017).

“Also recorded” adds a separate entry of the source. Where two headings read alike, the source gives them in different places.

Common to all, as to format: biochemical
For experiment [1], the system named is formation of AGEs (BSA-MGO). Nature of the experiment: BSA-MGO antiglycation assay. Conditions: for IC50: read-out: Protein glycation BSA-MGO IC50; for Protein glycation BSA-MGO % inhibition: isolated constituents, highest test concentration. On the procedure: The BSA-glucose and BSA-MGO antiglycation assays were performed as reported before ([Amin et al., 2016]). The test protocol is attached as Supplementary Material ([Amin et al., 2016]).
60 Protein-glyoxal interaction (BSA-MGO assay)
61 The antiglycation assay using methylgloxyl (MGO) was performed according to the method
62 developed by Peng et al. (2007) with slight modifications. Briefly, methylglyoxal (135 μL, 5.75
63 mM) was incubated with BSA (135 μL, 10 mg/mL) dissolved in phosphate buffer (50 mM, pH
64 7.4, containing sodium azide (0.02%), added to prevent bacterial growth) and test compounds
65 (30 μL) at different final concentrations (1.5 – 0.023 mM) in 100% DMSO. The reaction
66 mixture was incubated at 37 °C for one week. Control solutions only contained methylglyoxal
67 (135 μL, 5.75 mM) BSA (135 μL, 1 0mg/mL) and DMSO (100%) only. The blank samples of
68 similar composition were also prepared simultaneously and kept at 4 °C for one week. The
70 440) due to formation of AGEs was monitored by spectrofluorometry (Tecan® Infinite M200,
71 Giessen, The Netherlands). Aminoguanidine (3-0.046 mM final concentration) was used as
72 reference compound. The AGEs inhibition was calculated as
74 % AGEs inhibition = [1–(S–Sb)/(C–Cb)] x 100
76 where S and C were fluorescence of test samples (in DMSO) and control (test mixtures
77 containing only DMSO) incubated at 37 °C, and where Sb and Cb were fluorescence for
78 samples incubated at 4 °C.
79 using Sigma plot® 13.0.

Experiment [2] addresses T1, α-glucosidase from Saccharomyces cerevisiae (Saccharomyces cerevisiae, UniProt P53341).
T1 construct: purchased Sigma-Aldrich
Put plainly: α-glucosidase inhibition assay. Details: inhibition: dose or concentration left out as unconfirmed. Conditions: for inhibition: read-out: α-glucosidase % inhibition; for α-glucosidase % inhibition: at the highest test concentration of 2 mM. On the procedure: The α-glucosidase assay was carried out according as reported before ([Amin et al., 2016]). The test protocol is attached as Supplementary Material ([Amin et al., 2016]).
81 Inhibition of α-glucosidase.
82 α-Glucosidase inhibitory activity was assayed according to method adopted by Choudhary et al.
83 (2010) with some modifications. Briefly, 50 µL of a solution of α-glucosidase from
84 Saccharomyces cerevisiae (0.2 U/mL in 0.1 M phosphate buffer at pH 6.8, Sigma-Aldrich, St.
85 Louis, MO, USA) was incubated with 20 μL of test compounds or extracts at different
86 concentrations (ranging from 6 mM – 0.372 mM in 25% DMSO for isolated constituents or
87 from 5 mg to 0.039 mg/mL for extracts) at 37 °C for 10 min. Then 50 μl of the substrate,
88 p-nitrophenyl-α-D-glucopyranoside (0.7 mM stock, final concentration 0.29 mM) was added to
89 the reaction mixture and incubated again for 30 min at 37 °C. […]
91 from 834 µg to 6.5 µg/mL for extracts. The reaction was stopped by adding Na2CO3 (100 μl,
92 200 mM stock) solution and the absorbance was measured at 400 nm. Final DMSO
93 concentration remained below 7.5% during the assay.
94 concentration) was used as reference compound.
96 The % inhibition was calculated using the following formula:
98 % Inhibition = 100 – [OD (test sample) / OD (control)] × 100
100 Alpha-glucosidase inhibition was categorized as mild (1-25%), moderate (26-50%), high

A further experiment deals with T2, 15-LOX from soybean (Glycine max, UniProt P08170).
T2 sequence (P08170 1-839): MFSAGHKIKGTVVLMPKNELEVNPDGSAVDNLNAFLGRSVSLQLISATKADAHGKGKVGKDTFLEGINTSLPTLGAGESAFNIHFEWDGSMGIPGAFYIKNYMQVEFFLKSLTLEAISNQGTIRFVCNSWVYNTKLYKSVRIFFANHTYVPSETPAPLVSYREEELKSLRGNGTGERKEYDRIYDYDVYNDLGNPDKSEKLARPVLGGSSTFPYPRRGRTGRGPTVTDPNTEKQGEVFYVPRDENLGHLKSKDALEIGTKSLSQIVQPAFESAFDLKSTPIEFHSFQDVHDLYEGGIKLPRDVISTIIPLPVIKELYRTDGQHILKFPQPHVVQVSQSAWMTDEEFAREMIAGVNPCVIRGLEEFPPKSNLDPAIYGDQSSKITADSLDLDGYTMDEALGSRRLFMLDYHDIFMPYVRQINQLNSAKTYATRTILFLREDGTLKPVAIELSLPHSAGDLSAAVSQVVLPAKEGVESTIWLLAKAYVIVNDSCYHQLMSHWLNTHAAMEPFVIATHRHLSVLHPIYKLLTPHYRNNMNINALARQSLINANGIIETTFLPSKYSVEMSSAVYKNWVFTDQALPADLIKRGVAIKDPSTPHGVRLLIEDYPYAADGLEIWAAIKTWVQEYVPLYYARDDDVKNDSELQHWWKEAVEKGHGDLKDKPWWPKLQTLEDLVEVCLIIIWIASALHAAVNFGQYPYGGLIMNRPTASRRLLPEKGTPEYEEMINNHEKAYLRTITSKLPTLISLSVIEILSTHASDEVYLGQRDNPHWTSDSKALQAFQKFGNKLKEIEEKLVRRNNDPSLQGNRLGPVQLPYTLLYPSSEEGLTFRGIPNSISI
Nature of the experiment: 15-lipoxygenase inhibition assay. On the procedure:
The soybean LOX assay is used as an indication of anti-inflammatory activity ([Muller, 1994]), and therefore during the present investigation, 15-LOX from soybean was used for peroxidation of linoleic acid, and inhibition was measured as described previously with slight modifications ([Malterud and Rydland, 2000]). Briefly, 12.5 μL (2–0.062 mM) of sample was dissolved in DMSO, and added to 487.5 μL of enzyme solution (200 U/mL). The mixture was incubated at room temperature for 5 min. Absorbance was recorded immediately after the addition of 500 μL of substrate (250 μM linoleic acid in 0.2 M borate buffer, pH 9) every minute up to 5 min at 234 nm.
% inhibition of enzyme activity was calculated as,
%inhibition of enzyme activity=([ΔA1/Δt]−[ΔA2/Δt])/(ΔA1/Δt)×100
where ΔA1/Δt and ΔA2/Δt are the increase rate in absorbance at 234 nm for sample without test substance and with test substance, respectively.

Setting [3] is: at the highest test concentration.

T1 sequence (P53341 whole entry): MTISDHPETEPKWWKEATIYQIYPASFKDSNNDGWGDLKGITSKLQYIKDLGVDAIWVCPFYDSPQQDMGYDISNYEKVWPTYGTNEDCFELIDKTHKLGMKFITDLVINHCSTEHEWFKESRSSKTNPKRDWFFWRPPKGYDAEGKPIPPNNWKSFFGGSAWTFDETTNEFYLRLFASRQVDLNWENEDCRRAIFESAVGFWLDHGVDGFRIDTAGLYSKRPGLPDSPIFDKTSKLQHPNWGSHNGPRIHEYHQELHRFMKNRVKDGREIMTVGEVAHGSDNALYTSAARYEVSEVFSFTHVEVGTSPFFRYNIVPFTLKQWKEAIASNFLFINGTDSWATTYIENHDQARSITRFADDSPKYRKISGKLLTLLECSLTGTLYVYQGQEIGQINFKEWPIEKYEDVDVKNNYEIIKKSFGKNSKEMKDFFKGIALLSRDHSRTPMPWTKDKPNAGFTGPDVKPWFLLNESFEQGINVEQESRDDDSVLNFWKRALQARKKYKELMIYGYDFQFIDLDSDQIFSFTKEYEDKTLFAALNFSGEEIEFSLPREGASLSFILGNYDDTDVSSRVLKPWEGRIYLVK

Usually IC50 stands for the concentration needed to halve the response being measured. Regarding `COc1ccc(-c2cc(=O)c3c(O)c(OC)c(O)cc3o2)cc1` [Compound 5, Pectolinarigenin], the half-maximal inhibitory concentration (IC50) in experiment [1] was determined as 190 µM; in experiment [2], 230 µM. In addition, the “15-LOX assay % inhibition” value at 15-LOX from soybean came to 46%.

As a reminder, the inhibition is the relative decrease from the control value, in per cent. As to `COC(=O)C1=COC(OC2OC(CO)C(O)C(O)C2O)C2C1CCC2(C)O` (stereo not shown) [Compound 3, Mussaenoside], in experiment [1], the “Protein glycation BSA-MGO % inhibition” value came out at 24%. Also, in experiment [2], the inhibition was determined as 9%. The “15-LOX assay % inhibition” value at 15-LOX from soybean (setting [3]) is on record as 37%.

Regarding `COc1ccc(-c2cc(=O)c3c(O)c(OC)c(O[C@@H]4O[C@H](CO[C@@H]5O[C@@H](C)[C@H](O)[C@@H](O)[C@H]5O)[C@@H](O)[C@H](O)[C@H]4O)cc3o2)cc1` [Compound 6, Pectolinarin], the concentration for half-maximal inhibition (IC50) came to 130 µM in experiment [1] and 250 µM at 15-LOX from soybean (read-out: 15-LOX IC50). Moreover, the inhibition in experiment [2] is 48%.

As for `CO[C@H]1C[C@@]2(O)[C@H](O)[C@@H](O)[C@](C)(OC)[C@H]2[C@@H](OC)O1` [Compound 1, Kickxiasine], the “Protein glycation BSA-MGO % inhibition” value in experiment [1] is listed as 31%. Moreover, the α-glucosidase % inhibition entry in experiment [2] is on record as “no activity”; in experiment [2] (listed as compound 1), “did not present any activity”. The “15-LOX assay % inhibition” value at 15-LOX from soybean (setting [3]) came to 30%.

Regarding `CC1(O)CCC2C(C(=O)O)=COC(OC3OC(CO)C(O)C(O)C3O)C21` (stereo not shown) [Compound 2, Mussaenosidic acid], in experiment [1], the “Protein glycation BSA-MGO % inhibition” value was determined as 23%. In experiment [2], the inhibition worked out at 15%. The same compound returned an IC50 at 15-LOX from soybean of 220 µM.

For the compound `COC(=O)c1ccc(O)cc1` [Compound 7, 4-Hydroxy benzoic acid methyl ester], the “Protein glycation BSA-MGO % inhibition” value in experiment [1] was “did not present any inhibition; also recorded: no activity”. In experiment [2], the inhibition worked out at 47%. Further, the “15-LOX assay % inhibition” value on 15-LOX from soybean (setting [3]) stood at 30%.
